In patent US20120238533A1, “(Heteroarylmethyl) Thiohydantoins as anticancer drugs” (BAYER PHARMA AKTIENGESELLSCHAFT, priority 2009, published 2012):

Experiments:
[1] = test system: human uterine leiomyoma xenografts; assay: Human xenograft cell proliferation (BrdU positive nuclei) in immunodeficient mice; format: in vivo; details: last week of Experiment 2, 15 mg/kg/d p.o. daily; two donors; FIG. 7
Protocol: (§1) Human uterine leiomyoma (UL) tissue was derived from any form of surgical intervention indicated for the respective diagnosis, either by hysterectomy with subsequent preparation of the tissues or by myomenucleation with or without morcellation for removal of the tissue from the abdominal cavity. Immediately after the surgery the UL tissue was placed into an appropriate sterile buffer (Vitron V7 buffer (U.S. Pat. No. 5,328,821) or Viaspan buffer for organ transplantation) at 4° C. for transport from the clinic. Under a sterile workbench, the UL tissue was cut into small pieces of 2×2×2 mm while keeping the tissue constantly moist. The small pieces of tissue were placed in tissue wells with PBS at room temperature for xenotransplantation. (M Fritsch et al. 2010, ISGE abstract & presentation). […] Therefore, graft weight was taken as a primary read-out parameter for growth of UL tissue (FIGS. 5 and 6).
(§2) Experiment 2 (the Thioxoimidazolidine Derivative as Androgen Receptor Antagonist)—FIGS. 6 and 7 • Human myoma tissue from two different patients was grafted s.c. in SCID mice; and the mice were treated as described in method above. […] BrdU positive nuclei were visualized by immunohistochemical staining in formalin-fixed graft sections, pictures were taken, and BrdU-positive nuclei per area were counted using the MIRAX Histoquant software (3DHISTECH Ltd, Budapest, Hungary). […]

[2] = test system: human uterine leiomyoma xenografts; assay: Xenograft of human uterine leiomyoma in immunodeficient mice, graft weight; format: in vivo; details: 60 d, SCID mice with E2 and P pellets, p<0.05
Protocol: as §1, with “6). […]” for “6).”
as §2

[3] = test system: Eker rat leiomyoma tumor-derived cells (Elt3); assay: Proliferation of Eker rat leiomyoma tumor-derived cells (Elt3), CellTiter-Glo viability assay; format: cell-based; details: for proliferation of Eker rat myoma cell line (Elt3): different concentrations, 7 days incubation, FIG. 1 and FIG. 2, range comparable to estradiol
Protocol: Elt3 cells were obtained from Cheryl Walker (University of Texas). In comparison to other cells, Elt3 cells were characterized to be tumorigenic in nude mice (C. Walker, Recent Prog. Horm. Res., January 2002; 57: 277). Elt3 cells were grown to confluence in T-75 flasks with DMEM containing 10% FCS at 37° C. and 5% CO2. The medium was changed into 1% CCS for 24 h. 1000 cells were seeded in 96-well-plates for 24 hours. Elt3 cells were incubated with test compounds for 7 days. The CellTiter-Glo® Luminescent Cell Viability Assay (Promega) was used for determination of the number of viable cells in culture based on quantitation of the ATP present, an indicator of metabolically active cells.
Elt3 cells were obtained and grown to confluence and were seeded as described above. Elt3 cells were incubated with test compounds for 7 days. The CellTiter-Glo® Luminescent Cell Viability Assay (Promega) was used for determination of the number of viable cells in culture based on quantitation of the ATP present, an indicator of metabolically active cells.

[4] = test system: primary myoma cells; assay: Proliferation of primary myoma cells, CellTiter-Glo viability assay; format: cell-based, human; details: 10^−6 M, 7 days; p<0.05 vs. DMSO; FIG. 3; range comparable to estradiol

CC(C)(O)COc1ccc(CN2C(=S)N(c3ccc(C#N)c(C(F)(F)F)c3)C(=O)C2(C)C)cn1 [thioxoimidazolidine derivative, 4-(3-{[6-(2-hydroxy-2-methylpropoxy)pyridin-3-yl]methyl}-4,4-dimethyl-5-oxo-2-thioxoimidazolidin-1-yl)-2-(trifluoromethyl)benzonitrile]
proliferation of grafts (BrdU-positive nuclei per area) [1]: clearly reduced | graft weight reduction vs. respective controls ([2]; Experiment 2: 15 mg/kg/d p.o. daily, tissue from two patients, FIG. 6): > 50%

CC(O)(CS(=O)(=O)c1ccc(F)cc1)C(=O)Nc1ccc(C#N)c(C(F)(F)F)c1 (stereo not drawn) [bicalutamide, N-[4-cyano-3-(trifluoromethyl)phenyl]-3-[(4-fluorophenyl)sulfonyl]-2-hydroxy-2-methylpropanamide]
graft weight reduction vs. respective controls ([2]; Experiment 1: 15 mg/kg/d p.o. every 2nd day, tissue from three patients, FIG. 5): > 30% | effect on DHT-induced proliferation of Elt3 cells ([3]; 10^−7 M bicalutamide with 10^−9 M DHT, p<0.05 vs. DHT, FIG. 4): abolished

C[C@]12CCC(=O)C[C@@H]1CC[C@@H]1[C@@H]2CC[C@]2(C)[C@@H](O)CC[C@@H]12 [dihydrotestosterone, 5α-dihydrotestosterone]
proliferation of primary myoma cells [4]: significantly induce an increase of proliferation | proliferation of Elt3 cells ([3]; 10^−9 M DHT, 7 days, p<0.05 vs. DMSO, FIG. 4): significantly increased | proliferation of Eker rat myoma cell line (Elt3) [3]: dose-dependent increase of proliferation

C[C@]12CC[C@H]3[C@@H](CCC4=CC(=O)CC[C@@]43C)[C@@H]1CC[C@@H]2O [testosterone]
proliferation of primary myoma cells [4]: significantly induce an increase of proliferation | proliferation of Eker rat myoma cell line (Elt3) [3]: dose-dependent increase of proliferation
